Results on four molecules are retold here after ChEMBL document CHEMBL4387728, “Synthetic glycopeptides reveal specific binding pattern and conformational change at O-mannosylated position of α-dystroglycan by POMGnT1 catalyzed GlcNAc modification” (Bioorg Med Chem, 2019).

The structures appear in SMILES notation. The source made the active and inactive calls. The rule behind the calls is not given here. Peptide text beside a SMILES is read from it. * marks the point of attachment. X1 = CC(=O)N[C@H]1[C@H](O[C@H]2[C@@H](O)[C@H](O)[C@@H](CO)O[C@@H]2*)O[C@H](CO)[C@@H](O[C@@H]2O[C@H](CO)[C@H](O)[C@H](O[C@]3(C(=O)O)C[C@H](O)[C@@H](NC(C)=O)[C@H]([C@H](O)[C@H](O)CO)O3)[C@H]2O)[C@@H]1O; X2 = CC(=O)N[C@H]1[C@H](O[C@H]2[C@@H](O)[C@H](O)[C@@H](CO)O[C@@H]2*)O[C@H](CO)[C@@H](O[C@@H]2O[C@H](CO)[C@H](O)[C@H](O)[C@H]2O)[C@@H]1O; GlcNAc(β1-2)αMan = CC(=O)N[C@H]1[C@H](O[C@H]2[C@@H](O)[C@H](O)[C@@H](CO)O[C@@H]2*)O[C@H](CO)[C@@H](O)[C@@H]1O; Hexanoyl(5-oxo) = CC(=O)CCCC(=O)*

Assay [1] is described as follows: Binding affinity to biotin-labeled Agaricus bisporus agglutinin in pH 7.4 Tris buffer by fluorescence microarray method.
The species entered for assay [2] is Homo sapiens. As to the kind of experiment: Binding affinity to biotin-labeled human recombinant laminin-2 at 10 ug/ml in pH 7.4 Tris buffer by fluorescence microarray method.
Assay [3] has as its system Sambucus racemosa subsp. sieboldiana. Nature of the assay: Binding affinity to biotin-labeled Sambucus sieboldiana agglutinin in pH 7.4 Tris buffer by fluorescence microarray method.
For a further assay, the system named is Maackia amurensis. Nature of the assay: Binding affinity to biotin-labeled Maackia amurensis agglutinin in pH 7.4 Tris buffer by fluorescence microarray method.
The next assay has as its system Triticum aestivum. As to the kind of experiment: Binding affinity to biotin-labeled Wheat germ agglutinin in pH 7.4 Tris buffer by fluorescence microarray method.
The test system of the next assay is Arachis hypogaea. As to the kind of experiment: Binding affinity to biotin-labeled Arachis hypogaea agglutinin in pH 7.4 Tris buffer by fluorescence microarray method.
In another assay the test system is Canavalia ensiformis. Nature of the assay: Binding affinity to biotin-labeled Canavalia ensiformis agglutinin in pH 7.4 Tris buffer by fluorescence microarray method.
The target in assay [4] is Laminin subunit alpha-1 (Homo sapiens) (UniProt P25391). As to the kind of experiment: Binding affinity to biotin-labeled human recombinant laminin-1 at 10 ug/ml in pH 5.6 MES buffer by fluorescence microarray method.
Sequence of Laminin subunit alpha-1 (Homo sapiens) (P25391 whole entry): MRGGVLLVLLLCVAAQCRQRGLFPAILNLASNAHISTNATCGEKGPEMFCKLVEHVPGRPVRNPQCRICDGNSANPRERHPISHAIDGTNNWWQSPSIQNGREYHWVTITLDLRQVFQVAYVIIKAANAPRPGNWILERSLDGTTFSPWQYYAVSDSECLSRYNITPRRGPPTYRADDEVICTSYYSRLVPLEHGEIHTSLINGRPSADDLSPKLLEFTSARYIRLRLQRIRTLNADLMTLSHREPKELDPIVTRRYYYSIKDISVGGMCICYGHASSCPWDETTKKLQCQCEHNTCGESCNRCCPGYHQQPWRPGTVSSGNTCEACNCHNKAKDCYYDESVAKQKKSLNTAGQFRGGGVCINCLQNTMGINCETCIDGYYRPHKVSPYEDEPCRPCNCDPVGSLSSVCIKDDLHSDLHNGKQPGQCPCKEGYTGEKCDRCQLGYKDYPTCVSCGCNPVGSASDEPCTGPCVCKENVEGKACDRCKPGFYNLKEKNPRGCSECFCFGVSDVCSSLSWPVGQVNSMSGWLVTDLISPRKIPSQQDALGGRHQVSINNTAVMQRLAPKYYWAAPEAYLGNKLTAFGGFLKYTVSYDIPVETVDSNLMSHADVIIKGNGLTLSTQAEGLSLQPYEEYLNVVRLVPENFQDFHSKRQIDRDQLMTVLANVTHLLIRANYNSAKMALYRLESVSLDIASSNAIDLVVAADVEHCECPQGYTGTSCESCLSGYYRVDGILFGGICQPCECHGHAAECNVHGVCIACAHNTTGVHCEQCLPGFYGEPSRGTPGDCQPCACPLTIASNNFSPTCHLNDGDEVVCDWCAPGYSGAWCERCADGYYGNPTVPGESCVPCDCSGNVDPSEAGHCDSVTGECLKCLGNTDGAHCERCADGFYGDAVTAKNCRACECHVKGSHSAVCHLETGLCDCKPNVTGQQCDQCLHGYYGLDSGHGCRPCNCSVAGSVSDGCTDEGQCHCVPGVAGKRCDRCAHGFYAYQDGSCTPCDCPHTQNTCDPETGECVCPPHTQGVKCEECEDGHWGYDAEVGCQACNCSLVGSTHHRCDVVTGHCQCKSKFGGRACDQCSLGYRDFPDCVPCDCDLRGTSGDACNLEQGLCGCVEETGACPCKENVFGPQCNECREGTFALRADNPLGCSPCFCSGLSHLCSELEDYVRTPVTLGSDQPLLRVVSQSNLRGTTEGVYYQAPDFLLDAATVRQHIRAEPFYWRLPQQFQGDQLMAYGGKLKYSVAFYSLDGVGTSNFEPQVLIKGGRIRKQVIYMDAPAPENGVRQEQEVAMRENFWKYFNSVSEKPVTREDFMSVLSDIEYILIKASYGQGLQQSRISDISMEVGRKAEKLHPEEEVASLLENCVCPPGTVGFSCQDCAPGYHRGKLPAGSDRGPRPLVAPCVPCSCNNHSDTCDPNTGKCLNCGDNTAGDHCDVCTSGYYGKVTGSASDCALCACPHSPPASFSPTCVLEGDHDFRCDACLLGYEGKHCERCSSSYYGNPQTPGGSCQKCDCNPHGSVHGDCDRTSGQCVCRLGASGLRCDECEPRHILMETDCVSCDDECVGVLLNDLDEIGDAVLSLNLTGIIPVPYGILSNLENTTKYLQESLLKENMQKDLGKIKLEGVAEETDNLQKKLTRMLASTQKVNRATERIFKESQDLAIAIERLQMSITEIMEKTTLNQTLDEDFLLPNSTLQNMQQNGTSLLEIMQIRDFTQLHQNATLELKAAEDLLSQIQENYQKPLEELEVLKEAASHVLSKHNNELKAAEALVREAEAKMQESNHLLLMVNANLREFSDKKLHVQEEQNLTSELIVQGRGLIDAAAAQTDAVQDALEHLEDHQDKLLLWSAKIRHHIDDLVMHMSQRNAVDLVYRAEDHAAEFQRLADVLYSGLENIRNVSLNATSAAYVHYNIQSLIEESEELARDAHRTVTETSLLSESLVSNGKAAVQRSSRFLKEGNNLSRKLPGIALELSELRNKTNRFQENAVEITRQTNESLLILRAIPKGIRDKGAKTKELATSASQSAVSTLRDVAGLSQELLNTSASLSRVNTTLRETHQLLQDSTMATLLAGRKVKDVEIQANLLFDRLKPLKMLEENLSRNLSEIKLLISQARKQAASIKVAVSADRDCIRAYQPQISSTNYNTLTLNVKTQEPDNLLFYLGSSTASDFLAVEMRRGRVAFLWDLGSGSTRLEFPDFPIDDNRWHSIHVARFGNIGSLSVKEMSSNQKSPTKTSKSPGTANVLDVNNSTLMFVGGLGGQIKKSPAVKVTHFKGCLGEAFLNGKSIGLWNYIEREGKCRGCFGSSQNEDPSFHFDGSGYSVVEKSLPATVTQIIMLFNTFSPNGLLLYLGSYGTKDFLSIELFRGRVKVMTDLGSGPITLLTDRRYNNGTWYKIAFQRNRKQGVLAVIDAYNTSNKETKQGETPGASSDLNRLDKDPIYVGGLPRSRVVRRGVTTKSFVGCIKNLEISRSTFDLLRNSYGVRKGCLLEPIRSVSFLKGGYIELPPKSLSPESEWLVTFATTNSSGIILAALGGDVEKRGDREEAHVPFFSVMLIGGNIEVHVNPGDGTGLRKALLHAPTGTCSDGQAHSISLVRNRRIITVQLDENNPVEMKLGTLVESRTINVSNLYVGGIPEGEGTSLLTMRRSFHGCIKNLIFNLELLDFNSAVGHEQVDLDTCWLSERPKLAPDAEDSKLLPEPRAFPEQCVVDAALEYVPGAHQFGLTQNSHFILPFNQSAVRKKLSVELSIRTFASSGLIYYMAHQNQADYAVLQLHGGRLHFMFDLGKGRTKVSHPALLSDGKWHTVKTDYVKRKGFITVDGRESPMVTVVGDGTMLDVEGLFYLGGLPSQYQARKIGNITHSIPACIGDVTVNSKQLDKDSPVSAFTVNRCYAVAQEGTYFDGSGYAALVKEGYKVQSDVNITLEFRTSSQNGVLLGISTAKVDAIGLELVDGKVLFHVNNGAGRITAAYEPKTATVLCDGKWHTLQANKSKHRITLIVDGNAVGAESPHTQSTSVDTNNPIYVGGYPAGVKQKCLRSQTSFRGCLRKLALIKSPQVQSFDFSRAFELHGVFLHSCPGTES
Assay [5] has as its target Lactotransferrin (Homo sapiens) (UniProt P02788). As to the kind of experiment: Binding affinity to biotin-labeled lactoferrin (unknown origin) at 10 ug/ml in pH 7.4 Tris buffer by fluorescence microarray method.
Another assay deals with Erythrina crista-galli. As to the kind of experiment: Binding affinity to biotin-labeled Erythrina crista-galli agglutinin in pH 7.4 Tris buffer by fluorescence microarray method.
The target of assay [6] is Laminin subunit alpha-1 (Homo sapiens) (UniProt P25391). As to the kind of experiment: Binding affinity to biotin-labeled human recombinant laminin-1 at 10 ug/ml in pH 7.4 Tris buffer by fluorescence microarray method.
Assay [7] is filed under the species Homo sapiens. As to the kind of experiment: Binding affinity to biotin-labeled human recombinant laminin-2 at 10 ug/ml in 5.6 MES buffer by fluorescence microarray method.
Assay [8] concerns the target Lactotransferrin (Homo sapiens) (UniProt P02788). Nature of the assay: Binding affinity to biotin-labeled lactoferrin (unknown origin) at 10 ug/ml in pH 5.6 MES buffer by fluorescence microarray method.
A further assay deals with Datura stramonium. As to the kind of experiment: Binding affinity to biotin-labeled Datura stramonium agglutinin in pH 7.4 Tris buffer by fluorescence microarray method.

Sequence of Lactotransferrin (Homo sapiens) (P02788 whole entry): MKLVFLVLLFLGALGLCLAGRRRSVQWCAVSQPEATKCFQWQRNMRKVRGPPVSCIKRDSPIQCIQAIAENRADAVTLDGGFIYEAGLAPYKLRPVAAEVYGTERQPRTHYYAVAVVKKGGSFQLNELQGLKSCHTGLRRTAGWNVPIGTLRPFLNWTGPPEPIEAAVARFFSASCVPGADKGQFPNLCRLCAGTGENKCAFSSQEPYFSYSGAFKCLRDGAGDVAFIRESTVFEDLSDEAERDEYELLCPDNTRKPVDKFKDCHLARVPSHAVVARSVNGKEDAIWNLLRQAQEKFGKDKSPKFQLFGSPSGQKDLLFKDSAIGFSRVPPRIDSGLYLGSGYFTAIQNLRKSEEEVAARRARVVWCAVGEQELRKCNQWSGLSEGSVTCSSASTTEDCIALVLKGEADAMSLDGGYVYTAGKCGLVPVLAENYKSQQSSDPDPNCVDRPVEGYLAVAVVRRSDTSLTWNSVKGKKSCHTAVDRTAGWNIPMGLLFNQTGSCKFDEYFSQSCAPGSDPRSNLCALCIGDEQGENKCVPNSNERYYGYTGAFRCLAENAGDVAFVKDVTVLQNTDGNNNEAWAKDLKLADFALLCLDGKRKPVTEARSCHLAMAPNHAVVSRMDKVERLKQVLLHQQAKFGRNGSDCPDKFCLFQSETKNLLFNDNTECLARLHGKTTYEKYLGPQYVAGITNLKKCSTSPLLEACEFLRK

Take `CC[C@H](C)[C@H](NC(=O)[C@H](C)NC(=O)CNC(=O)[C@H](CCCNC(=N)N)NC(=O)[C@@H](NC(=O)CCCC(C)=O)[C@@H](C)O)C(=O)N[C@H](C(=O)N[C@@H](CCC(N)=O)C(=O)N[C@H](C(=O)N1CCC[C@H]1C(=O)N[C@H](C(=O)N[C@@H](CC(C)C)C(=O)NCC(=O)N1CCC[C@H]1C(=O)N[C@H](C(=O)N[C@@H](CCC(N)=O)C(=O)N1CCC[C@H]1C(=O)N[C@H](C(=O)N[C@@H](CCCNC(=N)N)C(=O)N[C@H](C(N)=O)C(C)C)[C@@H](C)O[C@H]1O[C@H](CO)[C@@H](O)[C@H](O)[C@@H]1O[C@@H]1O[C@H](CO)[C@@H](O[C@@H]2O[C@H](CO)[C@H](O)[C@H](O[C@]3(C(=O)O)C[C@H](O)[C@@H](NC(C)=O)[C@H]([C@H](O)[C@H](O)CO)O3)[C@H]2O)[C@H](O)[C@H]1NC(C)=O)[C@@H](C)CC)[C@@H](C)O)[C@@H](C)O[C@H]1O[C@H](CO)[C@@H](O)[C@H](O)[C@@H]1O[C@@H]1O[C@H](CO)[C@@H](O[C@@H]2O[C@H](CO)[C@H](O)[C@H](O[C@]3(C(=O)O)C[C@H](O)[C@@H](NC(C)=O)[C@H]([C@H](O)[C@H](O)CO)O3)[C@H]2O)[C@H](O)[C@H]1NC(C)=O)[C@@H](C)CC` ({Hexanoyl(5-oxo)}-TRGAIIQT(X1)PTLGPIQPT(X1)RV-NH2): the result (in [1]; in assay [3]; in the assay on Triticum aestivum; in the assay with Arachis hypogaea; in the assay with Canavalia ensiformis; in [4]) was Active. Also, the result (in the assay on Erythrina crista-galli; in [6]; in the assay filed under Homo sapiens [7]; in [8]) was Active. Also, the result (in the assay listed under Homo sapiens [2]; in the assay with Maackia amurensis; in [5]; in the assay on Datura stramonium) was inactive.

In the case of `CC[C@H](C)[C@H](NC(=O)[C@H](C)NC(=O)CNC(=O)[C@H](CCCNC(=N)N)NC(=O)[C@@H](NC(=O)CCCC(C)=O)[C@@H](C)O)C(=O)N[C@H](C(=O)N[C@@H](CCC(N)=O)C(=O)N[C@H](C(=O)N1CCC[C@H]1C(=O)N[C@H](C(=O)N[C@@H](CC(C)C)C(=O)NCC(=O)N1CCC[C@H]1C(=O)N[C@H](C(=O)N[C@@H](CCC(N)=O)C(=O)N1CCC[C@H]1C(=O)N[C@H](C(=O)N[C@@H](CCCNC(=N)N)C(=O)N[C@H](C(N)=O)C(C)C)[C@@H](C)O)[C@@H](C)CC)[C@@H](C)O[C@H]1O[C@H](CO)[C@@H](O)[C@H](O)[C@@H]1O[C@@H]1O[C@H](CO)[C@@H](O[C@@H]2O[C@H](CO)[C@H](O)[C@H](O[C@]3(C(=O)O)C[C@H](O)[C@@H](NC(C)=O)[C@H]([C@H](O)[C@H](O)CO)O3)[C@H]2O)[C@H](O)[C@H]1NC(C)=O)[C@@H](C)O)[C@@H](C)CC` ({Hexanoyl(5-oxo)}-TRGAIIQTPT(X1)LGPIQPTRV-NH2), the outcome (in [1]; in [3]; in the assay on Triticum aestivum; with Arachis hypogaea; with Canavalia ensiformis; in [4]) was Active. The result (in the assay with Erythrina crista-galli; in [6]; in the assay listed under Homo sapiens [7]; in assay [8]) was Active. Besides, the outcome (in the assay listed under Homo sapiens [2]; in the assay with Maackia amurensis; in [5]; in the assay with Datura stramonium) was inactive.

As for `CC[C@H](C)[C@H](NC(=O)[C@H](C)NC(=O)CNC(=O)[C@H](CCCNC(=N)N)NC(=O)[C@@H](NC(=O)CCCC(C)=O)[C@@H](C)O)C(=O)N[C@H](C(=O)N[C@@H](CCC(N)=O)C(=O)N[C@H](C(=O)N1CCC[C@H]1C(=O)N[C@H](C(=O)N[C@@H](CC(C)C)C(=O)NCC(=O)N1CCC[C@H]1C(=O)N[C@H](C(=O)N[C@@H](CCC(N)=O)C(=O)N1CCC[C@H]1C(=O)N[C@H](C(=O)N[C@@H](CCCNC(=N)N)C(=O)N[C@H](C(N)=O)C(C)C)[C@@H](C)O)[C@@H](C)CC)[C@@H](C)O)[C@@H](C)O[C@H]1O[C@H](CO)[C@@H](O)[C@H](O)[C@@H]1O[C@@H]1O[C@H](CO)[C@@H](O[C@@H]2O[C@H](CO)[C@H](O)[C@H](O)[C@H]2O)[C@H](O)[C@H]1NC(C)=O)[C@@H](C)CC` ({Hexanoyl(5-oxo)}-TRGAIIQT(X2)PTLGPIQPTRV-NH2), the outcome (in assay [1]; in assay [3]; in the assay with Triticum aestivum; with Arachis hypogaea; with Canavalia ensiformis; in [4]) was Active. For the same molecule, the result (in the assay on Erythrina crista-galli; in assay [6]; in the assay filed under Homo sapiens [7]; in assay [8]) was Active. For the same molecule, the result (in the assay listed under Homo sapiens [2]; with Maackia amurensis; in assay [5]; in the assay with Datura stramonium) was inactive.

For `CC[C@H](C)[C@H](NC(=O)[C@H](C)NC(=O)CNC(=O)[C@H](CCCNC(=N)N)NC(=O)[C@@H](NC(=O)CCCC(C)=O)[C@@H](C)O)C(=O)N[C@H](C(=O)N[C@@H](CCC(N)=O)C(=O)N[C@H](C(=O)N1CCC[C@H]1C(=O)N[C@H](C(=O)N[C@@H](CC(C)C)C(=O)NCC(=O)N1CCC[C@H]1C(=O)N[C@H](C(=O)N[C@@H](CCC(N)=O)C(=O)N1CCC[C@H]1C(=O)N[C@H](C(=O)N[C@@H](CCCNC(=N)N)C(=O)N[C@H](C(N)=O)C(C)C)[C@@H](C)O)[C@@H](C)CC)[C@@H](C)O[C@H]1O[C@H](CO)[C@@H](O)[C@H](O)[C@@H]1O[C@@H]1O[C@H](CO)[C@@H](O)[C@H](O)[C@H]1NC(C)=O)[C@@H](C)O)[C@@H](C)CC` ({Hexanoyl(5-oxo)}-TRGAIIQTPT(GlcNAc(β1-2)αMan)LGPIQPTRV-NH2), the result (in [1]; in [3]; in the assay on Triticum aestivum; in the assay with Arachis hypogaea; in the assay on Canavalia ensiformis; in assay [4]) was Active. Moreover, the result (in the assay on Erythrina crista-galli; in [6]; in the assay listed under Homo sapiens [7]; in assay [8]) was Active. The outcome (in the assay listed under Homo sapiens [2]; in the assay on Maackia amurensis; in assay [5]; with Datura stramonium) was inactive.
